What was measured:
[1] = molecular target: T1, Beta-2 adrenergic receptor (Homo sapiens, UniProt P07550); format: functional, cell-based
[2] = molecular target: T2, Alpha-1A adrenergic receptor (Homo sapiens, UniProt P35348)
T2 sequence (P35348 whole entry): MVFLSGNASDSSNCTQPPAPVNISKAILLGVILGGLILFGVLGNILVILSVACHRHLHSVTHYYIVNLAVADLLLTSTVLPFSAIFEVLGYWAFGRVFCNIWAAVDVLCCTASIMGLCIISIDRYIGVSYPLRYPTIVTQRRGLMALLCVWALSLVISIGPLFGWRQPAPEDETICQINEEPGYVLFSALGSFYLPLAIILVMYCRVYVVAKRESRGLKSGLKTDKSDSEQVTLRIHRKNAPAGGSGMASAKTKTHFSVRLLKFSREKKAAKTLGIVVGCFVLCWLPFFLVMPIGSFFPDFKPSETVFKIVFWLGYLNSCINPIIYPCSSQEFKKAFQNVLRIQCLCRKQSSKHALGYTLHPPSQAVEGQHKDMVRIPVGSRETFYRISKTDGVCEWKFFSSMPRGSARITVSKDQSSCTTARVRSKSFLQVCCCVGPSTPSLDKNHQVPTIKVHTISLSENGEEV

[3] = molecular target: T3, Gamma-aminobutyric acid receptor subunit alpha-1 (Rattus norvegicus, UniProt P62813)
[4] = molecular target: T4, 5-hydroxytryptamine receptor 1A (Homo sapiens, UniProt P08908); format: functional, cell-based
T4 sequence (P08908 whole entry): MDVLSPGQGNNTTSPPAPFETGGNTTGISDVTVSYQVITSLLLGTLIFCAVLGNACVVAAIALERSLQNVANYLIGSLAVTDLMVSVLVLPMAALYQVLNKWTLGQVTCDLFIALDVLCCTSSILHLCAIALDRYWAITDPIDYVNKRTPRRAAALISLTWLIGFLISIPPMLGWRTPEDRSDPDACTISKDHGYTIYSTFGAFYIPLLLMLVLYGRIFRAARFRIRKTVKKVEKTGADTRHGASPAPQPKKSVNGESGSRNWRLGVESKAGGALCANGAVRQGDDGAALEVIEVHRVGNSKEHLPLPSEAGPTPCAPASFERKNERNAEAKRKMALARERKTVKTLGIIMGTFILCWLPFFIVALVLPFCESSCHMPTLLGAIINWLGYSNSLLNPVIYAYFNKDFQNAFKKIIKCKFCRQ

[5] = molecular target: T5, D(1A) dopamine receptor (Homo sapiens, UniProt P21728); format: functional, cell-based
[6] = molecular target: T2, Alpha-1A adrenergic receptor; format: functional, cell-based
[7] = molecular target: T6, 5-hydroxytryptamine receptor 2B (Homo sapiens, UniProt P41595); format: functional, cell-based
[8] = molecular target: T1, Beta-2 adrenergic receptor
[9] = molecular target: T7, Cannabinoid receptor 1 (Homo sapiens, UniProt P21554); format: functional, cell-based
[10] = molecular target: T4, 5-hydroxytryptamine receptor 1A; format: functional, cell-based; remark: listed apart in the source
[11] = molecular target: Delta-type opioid receptor (Homo sapiens, UniProt P41143)
[12] = molecular target: Voltage-dependent L-type calcium channel subunit alpha-1C (Rattus norvegicus, UniProt P22002); format: functional
[13] = molecular target: Gamma-aminobutyric acid receptor subunit alpha-1/alpha-2/beta-2/gamma-2 (Homo sapiens, UniProt P14867+P18507+P47869+P47870); format: functional, cell-based
[14] = molecular target: Neuronal acetylcholine receptor subunit alpha-4 (Homo sapiens, UniProt P43681)
[15] = molecular target: T5, D(1A) dopamine receptor; format: functional, cell-based; remark: listed apart in the source
[16] = molecular target: Glutamate receptor ionotropic, NMDA 1 (Rattus norvegicus, UniProt P35439)
[17] = molecular target: T8, Mu-type opioid receptor (Homo sapiens, UniProt P35372); assay: biochemical; format: functional
[18] = molecular target: T2, Alpha-1A adrenergic receptor; format: functional, cell-based; remark: listed apart in the source
[19] = molecular target: T7, Cannabinoid receptor 1
[20] = molecular target: T9, Amine oxidase [flavin-containing] A (Homo sapiens, UniProt P21397); format: functional
T9 sequence (P21397 whole entry): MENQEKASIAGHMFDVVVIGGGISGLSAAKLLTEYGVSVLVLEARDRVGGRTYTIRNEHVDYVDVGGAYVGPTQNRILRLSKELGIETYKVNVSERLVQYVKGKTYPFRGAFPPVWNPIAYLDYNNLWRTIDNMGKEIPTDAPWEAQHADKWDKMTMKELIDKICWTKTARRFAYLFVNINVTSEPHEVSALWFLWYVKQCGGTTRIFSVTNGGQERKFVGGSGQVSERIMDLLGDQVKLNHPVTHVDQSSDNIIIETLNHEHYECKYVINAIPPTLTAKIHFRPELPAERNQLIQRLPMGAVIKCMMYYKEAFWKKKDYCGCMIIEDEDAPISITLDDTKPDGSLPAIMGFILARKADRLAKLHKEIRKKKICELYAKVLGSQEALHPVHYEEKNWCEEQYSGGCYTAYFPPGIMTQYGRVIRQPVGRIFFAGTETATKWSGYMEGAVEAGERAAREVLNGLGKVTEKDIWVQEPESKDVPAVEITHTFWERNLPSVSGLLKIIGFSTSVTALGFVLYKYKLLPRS

[21] = molecular target: T6, 5-hydroxytryptamine receptor 2B
[22] = molecular target: T3, Gamma-aminobutyric acid receptor subunit alpha-1; format: functional
[23] = molecular target: D(3) dopamine receptor (Homo sapiens, UniProt P35462)
[24] = molecular target: Histamine H2 receptor (Homo sapiens, UniProt P25021); format: functional, cell-based
[25] = molecular target: T6, 5-hydroxytryptamine receptor 2B; format: functional, cell-based; remark: listed apart in the source
[26] = molecular target: T10, 5-hydroxytryptamine receptor 2C (Homo sapiens, UniProt P28335)
T10 sequence (P28335 whole entry): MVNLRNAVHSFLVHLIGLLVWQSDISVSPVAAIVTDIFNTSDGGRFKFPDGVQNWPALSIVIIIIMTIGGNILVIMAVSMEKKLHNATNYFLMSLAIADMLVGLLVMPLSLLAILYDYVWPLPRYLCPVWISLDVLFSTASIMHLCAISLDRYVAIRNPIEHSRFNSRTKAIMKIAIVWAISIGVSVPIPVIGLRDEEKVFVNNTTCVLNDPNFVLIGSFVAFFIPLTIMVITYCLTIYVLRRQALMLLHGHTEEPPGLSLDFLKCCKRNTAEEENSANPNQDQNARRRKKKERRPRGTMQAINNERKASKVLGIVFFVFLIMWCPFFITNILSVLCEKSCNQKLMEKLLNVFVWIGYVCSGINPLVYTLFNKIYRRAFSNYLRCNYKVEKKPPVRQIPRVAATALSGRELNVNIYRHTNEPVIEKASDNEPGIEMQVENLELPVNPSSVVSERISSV

[27] = molecular target: Histamine H3 receptor (Homo sapiens, UniProt Q9Y5N1)
[28] = molecular target: Kappa-type opioid receptor (Homo sapiens, UniProt P41145)
[29] = molecular target: T8, Mu-type opioid receptor
Also: assay procedure not described here.

T6 sequence (P41595 whole entry): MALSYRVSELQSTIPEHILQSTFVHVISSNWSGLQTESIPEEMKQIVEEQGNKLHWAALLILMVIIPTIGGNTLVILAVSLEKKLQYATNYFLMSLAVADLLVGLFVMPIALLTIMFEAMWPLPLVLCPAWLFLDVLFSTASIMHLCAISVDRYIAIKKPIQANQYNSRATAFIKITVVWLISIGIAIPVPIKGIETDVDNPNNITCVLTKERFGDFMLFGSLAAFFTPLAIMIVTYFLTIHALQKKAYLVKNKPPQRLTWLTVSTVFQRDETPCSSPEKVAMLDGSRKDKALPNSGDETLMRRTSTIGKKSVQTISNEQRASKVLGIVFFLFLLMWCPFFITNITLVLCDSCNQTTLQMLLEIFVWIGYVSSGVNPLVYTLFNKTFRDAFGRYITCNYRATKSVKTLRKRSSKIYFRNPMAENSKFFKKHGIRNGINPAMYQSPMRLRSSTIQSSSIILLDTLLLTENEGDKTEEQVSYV
T8 sequence (P35372 whole entry): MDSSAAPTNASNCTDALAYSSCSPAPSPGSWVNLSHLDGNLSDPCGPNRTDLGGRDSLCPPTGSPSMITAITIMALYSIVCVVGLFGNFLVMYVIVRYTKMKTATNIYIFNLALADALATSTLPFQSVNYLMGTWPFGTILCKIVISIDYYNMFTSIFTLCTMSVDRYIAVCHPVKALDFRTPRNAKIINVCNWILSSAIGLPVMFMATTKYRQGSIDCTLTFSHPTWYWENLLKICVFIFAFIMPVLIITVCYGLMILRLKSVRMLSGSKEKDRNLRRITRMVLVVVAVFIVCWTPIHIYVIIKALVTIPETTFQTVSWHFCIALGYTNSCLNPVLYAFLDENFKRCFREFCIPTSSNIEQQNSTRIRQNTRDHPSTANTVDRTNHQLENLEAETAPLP
T5 sequence (P21728 whole entry): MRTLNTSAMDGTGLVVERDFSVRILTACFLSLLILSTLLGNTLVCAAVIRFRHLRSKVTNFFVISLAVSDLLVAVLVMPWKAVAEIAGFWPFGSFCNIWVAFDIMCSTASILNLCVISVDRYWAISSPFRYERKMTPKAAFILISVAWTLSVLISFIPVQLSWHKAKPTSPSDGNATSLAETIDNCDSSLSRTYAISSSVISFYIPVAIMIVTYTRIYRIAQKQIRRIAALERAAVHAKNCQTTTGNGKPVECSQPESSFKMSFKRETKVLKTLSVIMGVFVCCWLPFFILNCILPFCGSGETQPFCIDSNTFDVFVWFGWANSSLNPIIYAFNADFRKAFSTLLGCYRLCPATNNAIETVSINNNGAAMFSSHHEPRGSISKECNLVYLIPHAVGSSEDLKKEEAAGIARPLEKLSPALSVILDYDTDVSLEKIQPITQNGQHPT
T1 sequence (P07550 whole entry): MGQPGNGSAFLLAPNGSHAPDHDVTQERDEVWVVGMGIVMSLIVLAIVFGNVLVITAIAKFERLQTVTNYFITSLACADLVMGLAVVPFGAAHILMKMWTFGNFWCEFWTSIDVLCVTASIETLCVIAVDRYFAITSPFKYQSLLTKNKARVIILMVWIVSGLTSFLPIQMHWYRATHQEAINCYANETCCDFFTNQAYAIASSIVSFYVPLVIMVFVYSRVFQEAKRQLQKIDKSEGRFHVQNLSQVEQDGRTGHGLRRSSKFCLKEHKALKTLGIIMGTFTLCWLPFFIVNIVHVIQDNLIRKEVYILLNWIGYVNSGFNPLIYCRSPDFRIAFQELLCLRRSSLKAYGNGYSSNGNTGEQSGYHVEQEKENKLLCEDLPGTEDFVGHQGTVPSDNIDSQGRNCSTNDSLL
T7 sequence (P21554 whole entry): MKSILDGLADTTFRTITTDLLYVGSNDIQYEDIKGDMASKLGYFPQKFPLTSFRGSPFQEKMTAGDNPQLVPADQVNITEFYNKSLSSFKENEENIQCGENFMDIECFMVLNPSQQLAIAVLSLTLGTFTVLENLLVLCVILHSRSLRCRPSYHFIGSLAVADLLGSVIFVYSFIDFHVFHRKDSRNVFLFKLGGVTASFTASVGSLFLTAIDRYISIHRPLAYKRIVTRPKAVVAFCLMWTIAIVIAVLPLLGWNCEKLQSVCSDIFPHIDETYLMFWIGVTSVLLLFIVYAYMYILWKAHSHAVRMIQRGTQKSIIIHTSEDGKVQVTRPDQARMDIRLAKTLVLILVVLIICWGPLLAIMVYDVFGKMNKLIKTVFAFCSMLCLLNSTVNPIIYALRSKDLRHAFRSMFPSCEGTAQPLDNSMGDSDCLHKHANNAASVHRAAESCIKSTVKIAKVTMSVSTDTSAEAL
T3 sequence (P62813 whole entry): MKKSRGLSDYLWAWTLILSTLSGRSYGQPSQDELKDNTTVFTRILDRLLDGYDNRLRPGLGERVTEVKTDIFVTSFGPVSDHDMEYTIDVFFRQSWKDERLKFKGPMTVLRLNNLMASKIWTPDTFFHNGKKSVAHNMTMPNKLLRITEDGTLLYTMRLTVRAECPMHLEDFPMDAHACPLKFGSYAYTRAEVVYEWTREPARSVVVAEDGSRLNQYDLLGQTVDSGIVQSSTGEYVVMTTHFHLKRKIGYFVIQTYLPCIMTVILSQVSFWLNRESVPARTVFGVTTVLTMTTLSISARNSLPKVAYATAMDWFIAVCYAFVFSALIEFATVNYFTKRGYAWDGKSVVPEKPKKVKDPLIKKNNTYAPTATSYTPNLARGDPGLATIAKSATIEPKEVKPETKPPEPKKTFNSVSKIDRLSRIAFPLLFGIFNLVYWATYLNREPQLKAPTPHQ
Voltage-dependent L-type calcium channel subunit alpha-1C, sequence (P22002 whole entry): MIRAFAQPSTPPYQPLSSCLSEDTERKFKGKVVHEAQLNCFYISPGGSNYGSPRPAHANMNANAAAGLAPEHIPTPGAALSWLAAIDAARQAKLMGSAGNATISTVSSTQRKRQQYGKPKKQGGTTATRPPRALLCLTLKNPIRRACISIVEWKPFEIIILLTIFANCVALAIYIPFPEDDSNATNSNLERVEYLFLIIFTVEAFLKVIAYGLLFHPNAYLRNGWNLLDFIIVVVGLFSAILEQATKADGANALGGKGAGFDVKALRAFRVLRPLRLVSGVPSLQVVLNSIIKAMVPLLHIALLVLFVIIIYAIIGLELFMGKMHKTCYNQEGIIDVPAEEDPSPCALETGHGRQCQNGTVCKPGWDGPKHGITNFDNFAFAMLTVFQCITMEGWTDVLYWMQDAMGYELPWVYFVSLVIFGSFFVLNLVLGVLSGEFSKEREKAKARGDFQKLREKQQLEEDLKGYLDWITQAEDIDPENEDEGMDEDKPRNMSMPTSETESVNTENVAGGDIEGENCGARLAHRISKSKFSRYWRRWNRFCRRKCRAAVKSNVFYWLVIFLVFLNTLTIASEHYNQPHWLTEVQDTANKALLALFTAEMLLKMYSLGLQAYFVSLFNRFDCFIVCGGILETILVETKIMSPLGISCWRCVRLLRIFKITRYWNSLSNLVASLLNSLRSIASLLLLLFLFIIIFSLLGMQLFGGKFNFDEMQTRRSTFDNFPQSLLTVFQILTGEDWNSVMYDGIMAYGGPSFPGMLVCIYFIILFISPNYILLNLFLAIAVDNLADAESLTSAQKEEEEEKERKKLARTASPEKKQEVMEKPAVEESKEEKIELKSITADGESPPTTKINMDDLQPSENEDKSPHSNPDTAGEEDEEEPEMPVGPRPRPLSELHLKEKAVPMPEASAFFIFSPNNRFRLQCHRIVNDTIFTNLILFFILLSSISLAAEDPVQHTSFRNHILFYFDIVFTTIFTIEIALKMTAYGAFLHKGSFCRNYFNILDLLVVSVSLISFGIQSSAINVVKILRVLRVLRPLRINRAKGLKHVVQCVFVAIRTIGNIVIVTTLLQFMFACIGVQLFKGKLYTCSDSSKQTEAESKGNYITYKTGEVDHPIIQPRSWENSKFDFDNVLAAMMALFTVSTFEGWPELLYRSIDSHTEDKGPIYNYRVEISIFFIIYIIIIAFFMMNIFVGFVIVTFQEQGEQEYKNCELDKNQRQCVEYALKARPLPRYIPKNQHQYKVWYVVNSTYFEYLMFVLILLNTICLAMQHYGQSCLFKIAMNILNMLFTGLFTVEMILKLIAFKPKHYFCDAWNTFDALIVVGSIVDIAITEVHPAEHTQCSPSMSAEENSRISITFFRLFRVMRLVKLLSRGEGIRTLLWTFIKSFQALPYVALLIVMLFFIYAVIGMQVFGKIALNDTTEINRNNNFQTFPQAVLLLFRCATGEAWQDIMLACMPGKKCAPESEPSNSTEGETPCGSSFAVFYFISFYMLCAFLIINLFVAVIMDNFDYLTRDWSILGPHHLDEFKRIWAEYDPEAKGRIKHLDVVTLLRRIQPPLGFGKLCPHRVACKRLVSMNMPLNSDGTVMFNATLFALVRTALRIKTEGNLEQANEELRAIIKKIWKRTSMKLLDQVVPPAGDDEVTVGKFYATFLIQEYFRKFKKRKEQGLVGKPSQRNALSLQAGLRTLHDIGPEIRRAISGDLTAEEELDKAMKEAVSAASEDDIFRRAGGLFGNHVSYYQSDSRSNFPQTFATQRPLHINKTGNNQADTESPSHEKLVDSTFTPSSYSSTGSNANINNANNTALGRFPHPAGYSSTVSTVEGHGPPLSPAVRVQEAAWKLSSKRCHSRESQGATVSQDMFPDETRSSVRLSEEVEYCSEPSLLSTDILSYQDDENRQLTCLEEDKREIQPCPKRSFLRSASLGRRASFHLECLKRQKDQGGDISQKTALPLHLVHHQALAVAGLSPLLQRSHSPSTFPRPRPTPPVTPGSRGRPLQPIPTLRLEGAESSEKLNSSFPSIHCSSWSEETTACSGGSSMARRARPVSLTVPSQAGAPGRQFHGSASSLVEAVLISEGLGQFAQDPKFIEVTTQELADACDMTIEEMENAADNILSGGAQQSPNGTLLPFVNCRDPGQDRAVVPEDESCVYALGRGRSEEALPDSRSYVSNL

- AC50 [1]: > 30 µM
- AC50 [2]: 0.078 µM
- AC50 [3]: > 10 µM
- AC50 [4]: > 30 µM
- AC50 [5]: > 30 µM
- AC50 [6]: > 30 µM
- AC50 [7]: > 30 µM
- AC50 [8]: > 30 µM
- AC50 [9]: > 30 µM
- AC50 [10]: > 30 µM
- AC50 [11]: 11 µM
- AC50 [12]: > 10 µM
- AC50 [13]: > 30 µM
- AC50 [14]: > 30 µM
- AC50 [15]: 21 µM
- AC50 [16]: > 10 µM
- AC50 [17]: 5.3 µM
- AC50 [18]: 0.96 µM
- AC50 [19]: > 10 µM
- AC50 [20]: > 30 µM
- AC50 [21]: 0.137 µM
- AC50 [22]: > 30 µM
- AC50 [23]: 2.83 µM
- AC50 [24]: > 30 µM
- AC50 [25]: 2.6 µM
- AC50 [26]: 12.4 µM
- AC50 [27]: > 30 µM
- AC50 [28]: 0.993 µM
- AC50 [29]: 6.26 µM
SMILES: CN1[C@@H]2CC[C@H]1C[C@@H](OC(c1ccccc1)c1ccccc1)C2 [BENZTROPINE]

— ChEMBL document CHEMBL5291721, “A preclinical secondary pharmacology resource illuminates target-adverse drug reaction associations of marketed drugs” (Nat Commun, 2023)
